Assay results reported in a compilation of properties of binary mixtures (doi:10.1021/acs.jced.3c00537).

Assay: xn = mol fraction of the nth substance listed
Conditions: 100 kPa

CC[n+]1ccn(C)c1.COP(=O)([O-])OC + CCO
viscosity [mPa·s]
Conditions	293.15 K	298.15 K	303.15 K	308.15 K	313.15 K	318.15 K	323.15 K	328.15 K	333.15 K	338.15 K
x1 = 0.1004	3.47	3.1	2.77	2.5	2.28	2.09	1.95	1.85	–	1.55
x1 = 0.2032	7.38	6.54	5.8	5.17	4.66	4.26	3.94	3.61	3.26	3.07
x1 = 0.3007	14.45	12.4	–	9.4	–	–	6.75	6.22	5.73	5.32
x1 = 0.3994	26.4	22.01	18.49	15.67	13.43	11.74	10.36	9.26	8.31	7.61
x1 = 0.5013	46.78	–	30.72	25.48	21.4	18.27	–	13.67	11.97	10.68
x1 = 0.5994	79.2	61.56	–	38.81	–	26.33	22.2	19.04	16.4	14.35
x1 = 0.7006	–	–	72.82	57.48	45.56	36.84	30.39	–	–	18.37
x1 = 0.8011	176.7	–	106.5	80.4	62.91	48.34	–	31.5	26.15	21.94
x1 = 0.8988	241	192.2	140.5	106.5	78.6	62.43	49.31	39.47	32.04	–
x1 = 1	348	247	178.9	–	–	79.1	62.91	50.39	–	33.59

COP(=O)([O-])OC.Cn1cc[n+](C)c1 + CCO
viscosity [mPa·s]
Conditions	293.15 K	298.15 K	303.15 K	308.15 K	313.15 K	318.15 K	323.15 K	328.15 K	333.15 K	338.15 K
x1 = 0.1005	–	2.91	–	2.38	2.15	1.9	1.74	1.54	–	1.22
x1 = 0.2006	6.54	5.92	–	4.71	4.29	3.89	3.5	3.19	2.93	2.67
x1 = 0.3005	13.17	11.4	–	8.77	7.8	–	–	5.87	–	5.14
x1 = 0.4031	24.71	20.72	17.29	14.75	–	11.17	9.96	8.98	8.12	7.43
x1 = 0.4996	42.18	33.84	27.62	22.9	19.31	16.65	14.39	–	11.07	–
x1 = 0.6043	70.07	54.83	43.41	35.07	28.85	24.13	20.39	17.54	15.17	13.3
x1 = 0.7009	111.3	–	64.5	50.89	40.71	–	–	22.99	–	16.89
x1 = 0.797	–	118.8	89.5	69.03	–	43.34	–	–	24.3	20.61
x1 = 0.8995	235.4	–	125.2	–	72.72	58.89	–	36.94	–	25.28
x1 = 1	331	232.5	165.8	–	93.5	–	57.09	45.49	36.7	30.05

CCO + CC[n+]1ccn(C)c1.COP(=O)([O-])OC
x2 = 0
Conditions	viscosity [mPa·s]
293.15 K	1.18
303.15 K	0.976
308.15 K	0.89
313.15 K	0.815
318.15 K	0.75
323.15 K	0.694
333.15 K	0.603
338.15 K	0.564

CCO + COP(=O)([O-])OC.Cn1cc[n+](C)c1
x2 = 0
Conditions	viscosity [mPa·s]
293.15 K	1.18
303.15 K	0.976
313.15 K	0.815
318.15 K	0.75
323.15 K	0.694
333.15 K	0.603
338.15 K	0.564
